# Reference: a melting point compilation (Tetko et al.; mined from patent text by program, amines drawn as free bases though some values may be those of a salt)
row,Structure (SMILES),melting point
1,CCCCCCCCCCCCCCCCCCOc1cc(SC)cc(C(=O)O)c1,64 to 66 °C
2,Cc1c(C(F)F)cc(-c2ccc(S(C)(=O)=O)cc2)n1-c1ccc(F)cc1,136 to 138 °C
3,CCC1(CCCBr)C(=O)NC(=O)NC1=O,138 to 140 °C
4,COC(=O)C(C)(C)OCc1nn(Cc2ccccc2)c2ccccc12,66 to 67 °C
5,O=C(Nc1ccccc1Sc1ccccc1)N[C@@H](Cc1ccc(NC(=O)c2c(Cl)cccc2Cl)cc1)C(=O)O,220 °C
6,N#CN=c1[nH]c2c([N+](=O)[O-])c(Cl)c(Cl)cc2nc1Cl,245 to 255 °C
7,O=C(O)c1cc(Cl)nn2nnnc12,225 °C
8,COC(=O)c1ccc(SC)cn1,71 to 73 °C
9,c1ccc2c(c1)Sc1ccccc1C1=C2CCNCC1,142 to 143 °C
10,NC1=NC2=NN(c3ccco3)NC2=C2N=CN(Cc3ccc(F)cc3)N12,266 to 268 °C
11,COC(=O)Cc1ccc(OCCNC(=O)C2Cc3ccccc3N2S(=O)(=O)c2ccc(-c3cccc(C(F)(F)F)c3)cc2)c(OC)c1 (stereo unspecified),52 to 60 °C
12,NS(=O)(=O)c1cc2c(s1)CCCC2O (stereo unspecified),102 to 103 °C
13,O=C(CO)NCc1ccc2ccn(C3CCN(CCc4ccccc4F)CC3)c2c1,151 to 152 °C
14,COc1ccc(C(C#Cc2ccccc2)Cc2noc(C(F)(F)F)n2)cc1OC1CCCC1 (racemic),96 to 98 °C
15,C[C@@H]1C[C@](C)(O)[C@H](C)N1c1ccc(C#N)c(F)c1,125 to 128 °C
16,CCCNC(=O)CCCn1c(CCC)nc2c(N)nc3ccccc3c21,161 to 163 °C
17,OCCc1ccc2c(c1)sc1ccc(Cl)cc12,98 to 100 °C
18,O=C(Nc1cccc2c(=O)cc(C(=O)O)oc12)c1cc(Cl)c2c(c1)CC(CCCc1ccccc1)O2 (stereo unspecified),224 to 225 °C
19,O=C1NC(=O)C2(CCN(Cc3ccccc3)CC2)O1,291 to 294 °C
20,CCOC(=O)c1cc(C(C)C)n(-c2ccc(Cl)cc2Cl)n1,93 to 95 °C
21,COc1cccc2c(C#Cc3ccccc3)c3cccc(OC)c3c(C#Cc3ccccc3)c12,178 to 180 °C
22,CCCCOc1ccc(S(=O)(=O)C2(C(=O)O)CCN(Cc3ccc(C)cc3)CC2)cc1,137 °C
23,CN1CCN(c2nccnc2Cl)CC1,34 to 36 °C
24,COc1cccc2c1OC(C(=O)N1CCC(NC(=O)Nc3ccccc3)CC1)CC2 (stereo unspecified),215 to 216 °C
25,c1ccc2cc(CC[C@H]3CNCCN3)ccc2c1,151 to 154 °C
26,Cc1ccc(F)cc1-n1c(CF)nc2ccc(N)cc2c1=O,174 to 176 °C

row,Structure (SMILES),melting point
1,O=C(OCCN1CCOC1=O)c1ccccc1Nc1ccnc2cc(Cl)ccc12,122 to 124 °C
2,CSC(SC)=C(Cl)c1cccc(C(=O)c2ccccc2)c1,94 to 96 °C
3,COC(=O)c1cccc(NC(=O)C=C(c2ccc(Cl)cc2)c2ccc(Cl)cc2)c1,155 to 159 °C
4,O=[N+]([O-])c1cc(F)c(N2CCCCC2)cc1Cl,70 °C
5,CCOc1ccc(-c2ccc3c(c2)C=C(C(=O)OC)CCS3(=O)=O)cc1,173 to 175 °C
6,CCc1nn(-c2ccccc2)nc1/C(C#N)=C(\OC(=O)C(C)(C)C)c1c(C)c(C)nn1C,119 °C
7,COCC1OC(OC(C)=O)C(OC(C)=O)C(OC(C)=O)C1OC(C)=O (stereo unspecified),102 to 103 °C
8,CC1(C)CC(=O)c2c(ncc3[nH]c4cc(Cl)ccc4c23)C1,257 to 259 °C
9,CCOC(=O)c1csc(Nc2ccccc2)n1,140 to 142 °C
10,Cc1cc(-c2cc(C(F)(F)F)n3ncc(C(=O)Nc4cccc(S(N)(=O)=O)c4)c3n2)ccc1Cl,275 °C
11,Cc1onc(-c2ccc(Cl)cc2)c1CCl,91 to 92 °C
12,O=C1c2ccccc2COc2cc(C=NO)ccc21,170 to 172 °C
13,CCCC1CCC(C2(N=C=S)C=CC(CC)=CC2)CC1 (stereo unspecified),43 °C
14,CC(C)CC(CS)C(=O)N[C@H]1Cc2cn(c3ccccc23)CCCCCCNC1=O (stereo partly specified),224 °C
15,Clc1ccc(CN2CC=C(/C=C/c3ccc4c(c3)OCO4)CC2)cc1,122 to 124 °C
16,O=c1cc2c(nn1-c1ccc(Cl)cc1)-c1ccccc1S(=O)(=O)CC2,> 310 °C
17,Cc1cc(C)c2c(c1O)C(NS(C)(=O)=O)CC2 (stereo unspecified),114 to 116 °C
18,CCCC1(Br)Cc2c3c(c(C)c(C)c2C1=O)OC(C(=O)O)C3 (stereo unspecified),78 °C
19,CN(C)C=C1C(=O)N(c2cccc(C(F)(F)F)c2)c2ccccc21,103 to 106 °C
20,CC(=O)N1CCC(NC(=O)Nc2cccc(F)c2)CC1,112 to 114 °C
21,CC(C)(C)OC(=O)NCCCn1c2c(c3ccc(NC(=O)CC(=O)O)cc3c1=O)C(=O)c1ccccc1-2,211 to 212 °C
22,O=C1NC(C(Cl)(Cl)Cl)Oc2ccccc21 (stereo unspecified),175 to 177 °C
23,CCCOC(=O)C(C)Oc1ccc(Oc2cnc3cc(F)ccc3n2)cc1F (stereo unspecified),49 to 51 °C
24,Cc1cc(Cl)ccc1OCC(=O)N1Cc2ccc(C(=O)c3cccc4ccccc34)n2Cc2ccccc21,130 to 134 °C
25,CC(C)(C)c1cc(CC(C)(C)C2SCCS2)cc(C(C)(C)C)c1O,119 °C
26,Nc1c(-c2cccc(Oc3ccccc3)c2)cnc2ncnn12,248 to 250 °C

row,Structure (SMILES),melting point
1,CCOC(=O)C1=C(COCc2cc(=O)[nH]c(N)n2)NC(C)=C(C(=O)OC)C1c1cccc(Cl)c1Cl (stereo unspecified),222 to 225 °C
2,COC(=O)c1cc2c(n(Cc3ccc(C#N)cc3)c1=O)CCCCCC2,72 to 75 °C
3,CCn1nnc(C(C=O)=C(c2ccc(F)cc2)c2ccc(F)cc2)n1,138 to 139 °C
4,COc1cc(Nc2c(C#N)cnc3c2C=C2N=CN=C2C3)cc(OC)c1OC,> 260 °C
5,Oc1ccc(-c2ccc3c(Cl)c(O)ccc3n2)cc1,215 to 216 °C
6,NCC(C(=O)O)C1CCCCC1 (stereo unspecified),238 to 240 °C
7,CCCc1nc2c(N)nc3ccccc3c2n1CC1(O)CCSCC1,243 to 244 °C
8,CC1(C)C=Cc2cc(S(=O)(=O)C[N+](=O)[O-])ccc2O1,81 °C
9,COC(=O)c1ccc(OCCCCCCCc2cc(C)no2)cc1,60 °C
10,COc1ccc(C(=O)Nc2c(Cl)cncc2Cl)c2c1oc1ccc(C(F)(F)F)cc12,298 °C
11,Cc1ccc(C=CC(=O)c2ccccc2)o1,57 to 61 °C
12,CC1C=C(C(=O)C(C#N)C(=O)Nc2ccccc2)c2cccc3c2=C1C1=CN=NC=31 (stereo unspecified),275 to 278 °C
13,CCC(C)(CC)C(=O)O[C@H]1CCC=C2C=C[C@H](C)[C@H](CC[C@@H]3C[C@@H](O)CC(=O)O3)[C@H]21,61 to 64 °C
14,O=c1oc(-c2ccc(OCCCc3ccccc3)cc2)cc(O)c1SCCc1ccccc1,139 to 142 °C
15,C=C(C)C(=O)OCCCOc1ccc(OC(=O)C(=C)C)cc1,58 °C
16,CN1C(=O)[C@H](NC(=O)CCc2cccc(Cl)c2)N=C(c2ccccc2)c2ccccc21,157 to 159 °C
17,O=C(O)CCc1ccc(CNC(=O)OCC2c3ccccc3-c3ccccc32)cc1,164 to 166 °C
18,Cc1sc2c(Br)c3ccccc3c(-c3cc(Br)c(O)c([N+](=O)[O-])c3)c2c1C,129 to 130 °C
19,COc1nc(C)nc(N(C)C(=O)NS(=O)(=O)c2ccccc2OC(F)(F)F)n1,162 °C
20,N#CCC(=O)Nc1ccc(OCc2cccc(F)c2)cc1,164 to 166 °C
21,COc1ccc(-c2nc(CN3CCOCC3)nc3cc(OC)c(OC)cc23)cc1OC,148 to 150 °C
22,CS(=O)(=O)c1ccc(-c2cc(C(=O)c3ccc(Cl)cc3Cl)sc2N2CCOCC2)cc1,170 °C
23,COc1cccc(CNc2ncnc3c2sc2nc(N4CCOCC4)c4c(c23)CC(C)(C)CC4)c1OC,219 to 220 °C
24,CCOC(=O)c1conc1-c1ccc(Cl)c(F)c1,77 to 78 °C
25,O=C(Nc1cc(C(F)(F)F)on1)C(Cl)(Cl)Cl,114 °C
26,COC(=O)CCCC#Cc1cc(Cl)ccc1NS(=O)(=O)c1ccc2c(c1)OCCN2C,131 to 133 °C

row,Structure (SMILES),melting point
1,CC(N)C(N)CC(=O)c1ccccc1 (stereo unspecified),106 to 107 °C
2,CCc1oc2ccccc2c1C(=O)NCc1ccc2c(Br)c(OC(Cc3ccccc3)C(=O)OC)ccc2c1 (stereo unspecified),139 to 143 °C
3,Cc1c(Cc2cccc(C(F)(F)F)c2)sc2c(-c3cc(F)cc(C(N)=O)c3)cccc12,146 to 147 °C
4,CC(C)(C)NC(=O)C(C#N)C(=O)C1CC1 (stereo unspecified),97 to 98.5 °C
5,O=C(NCc1ccccc1)Nc1nnc(-c2ccc(CN3CCCCCC3)s2)o1,184 to 185 °C
6,O=C(Oc1cccc(F)c1)c1ccccc1F,37.5 to 38.5 °C
7,Cc1cc(C)c(CON)c(C)c1,54 to 55 °C
8,CN1CCCC(c2ccccc2)c2[nH]c3ccccc3c2CC1 (stereo unspecified),117 to 119 °C
9,COc1ccc2c3c(c(=O)oc2c1)CN(CCc1ccccc1)CC3,135 to 136 °C
10,Cc1ccc(C(=O)Nc2nc3ccccc3c(=O)n2C)cc1,189 to 191 °C
11,O=C(O)c1cccc(-c2cc([N+](=O)[O-])ccc2F)c1,272 to 274 °C
12,O=S1(=O)N=CN(C2CCCCC2)c2cc(Cl)ccc21,189 to 191 °C
13,CC(CCl)OC(=O)Nc1ccc([N+](=O)[O-])cc1Cl (stereo unspecified),101 to 103 °C
14,CN1CCN(c2ccc(S(=O)(=O)c3ccc(F)cc3)c(N)c2)CC1,85 to 89 °C
15,COC(=O)C1C=CCN2C(=O)C(CCO)(Cc3ccccc3)C(=O)N12 (stereo unspecified),148 to 149 °C
16,COc1cc(C(=O)N2CCN(C(=O)OC(C)(C)C)C(C(=O)O)C2)cc(OC)c1OC (stereo unspecified),188 to 190 °C
17,O=C1c2ccccc2-c2cc(Nc3nc(Nc4ccc5c(c4)-c4ccccc4C5=O)nc(-c4cccn4Cc4ccccc4)n3)ccc21,140 to 142 °C
18,CCCC(=O)c1cnc2c(OCCN(C)C)cccc2c1Nc1ccccc1C,88 to 90 °C
19,CCOC(=O)c1cc(C(=O)CBr)c(=O)[nH]c1C(=O)OCC,141 to 142 °C
20,COc1ccc2[nH]c(SCc3ncnc(N4CCCCC4)c3C)nc2c1,94 to 96 °C
21,CC1(C)COC(c2cc(F)c(F)cc2F)=N1,53 to 54 °C
22,CC12CCC3c4cc(C=O)c(OCc5ccccc5)cc4CCC3C1CCC2OCc1ccccc1 (stereo unspecified),145 to 147 °C
23,CSc1c(CC(C)(C)C(=O)O)n(Cc2ccc(Cl)cc2)c2ccc(C(C)C)cc12,143 to 144 °C
